Data on three compounds can be found in patent US20220396565A1 (Hoffmann-La Roche Inc., priority 2020, published 2022).

The structures appear in SMILES notation. Where a name gives a salt, the structure may show the parent alone.

For this assay, the system named is Acinetobacter baumannii ATCC17978. Kind of assay: Antimicrobial susceptibility testing: 90% growth inhibitory concentration (IC90) determination, Iso-Sensitest broth. Type of assay: cell-based. To be noted: 90% growth inhibitory concentration, Acinetobacter baumannii ATCC17978, Iso-Sensitest broth; read-out: ATCC 17978 IC90. The procedure, abridged:
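Growth at OD600 was monitored every 20 min for 16 h at 35±2 °C, with bacteria inoculated at ~5×10^(5) CFU/ml into Iso-Sensitest medium. Compounds were tested as 10-point twofold dilutions (e.g. 10–0.02 μM final). The 90% inhibitory concentration comes from the log-phase growth.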
On to `CCc1cc(NC(=O)c2ncc(-c3ccc(OC(C)C)c(F)c3)n2C)ccc1C(=O)N1CCN(CCN(C)C)CC1` [Example 276, N-(4-(4-(2-(dimethylamino)ethyl)piperazine-1-carbonyl)-3-ethylphenyl)-5-(3-fluoro-4-isopropoxyphenyl)-1-methyl-1H-imidazole-2-carboxamide], for which the IC90 (in general, the concentration needed for an effect of 90%) came to 4.02 µM.

As for `CCc1cc(NC(=O)c2ncc(-c3ccc(OC)cc3Cl)n2C)ccc1C(=O)N1CCN(CCN(C)C)CC1` [Example 277, 5-(2-chloro-4-methoxyphenyl)-N-(4-(4-(2-(dimethylamino)ethyl)piperazine-1-carbonyl)-3-ethylphenyl)-1-methyl-1H-imidazole-2-carboxamide], the IC90 was 2.3 µM.

Take `COc1ccc(-c2cnc(C(=O)Nc3ccc(C(=O)N4CCN(CCN(C)C)CC4)c(Cl)c3)n2C)c(F)c1F` [Example 278, N-[3-chloro-4-[4-[2-(dimethylamino)ethyl]piperazine-1-carbonyl]phenyl]-5-(2,3-difluoro-4-methoxy-phenyl)-1-methyl-imidazole-2-carboxamide formate]: the 90% effect concentration (IC90) was found to be 0.08 µM.
